The data set in a line: Dissolving the compound with solubilizer in heated, vacuum-stirred water for injection under nitrogen or argon gas (preparation tank). Format: physicochemical. The following applies: kept at 80 °C. As for the experimental part:
In view of this, the present invention provides a method for dissolving a carbon glycoside compound or a stilbene compound, characterized in that the method comprises the following steps: • heating water for injection to 80-98 °C, followed by stirring under vacuum condition at 30-80 °C, and then adding the carbon glycoside compound or the stilbene compound along with a solubilizer under the protection of nitrogen gas or argon gas to obtain a solution of said compounds; • wherein the solubilizer is one or a mixture of two or more of gastrodin, water-soluble cyclodextrin and ethanol, and wherein the water-soluble cyclodextrin is one or a mixture of two or more of methyl-β-cyclodextrin, thioether-β-cyclodextrin and sulfobutyl ether-β-cyclodextrin; and • wherein the mass ratio of the carbon glycoside compound or the stilbene compound to the solubilizer is 1:1-20.
Disclosed is a method for dissolving a flavonoid compound, a carbon glycoside compound or a stilbene compound, including: • mixing the flavonoid compound, the carbon glycoside compound or the stilbene compound with a solubilizer to obtain a reactant; and • heating water for injection to 80-98 °C, followed by stirring under vacuum conditions at 30-80 °C, and then adding the reactant under the protection of nitrogen gas or argon gas to obtain a solution of the reactant.
Considering the sensitivity to heat or light of the flavonoid compound, the carbon glycoside compound or the stilbene compound, a method is provided by heating water for injection to 80-98 °C to remove dissolved oxygen and other gases in water, which reduces the surface tension of water, increases the contact area of water with the flavonoid compound, the carbon glycoside compound or the stilbene compound, thus increasing the dissolution speed. Meanwhile, pre-heating the water for injection can effectively avoid degradation of the flavonoid compound, the carbon glycoside compound or the stilbene compound due to exposure to the dissolved oxygen, to eliminate unstable factors of the flavonoid compound, the carbon glycoside compound or the stilbene compound. The vacuum conditions can achieve further deoxygenation, facilitating the dissolution of the flavonoid compound, the carbon glycoside compound or the stilbene compound in water. Nitrogen gas or argon gas provides an inert atmosphere, which further reduces the surface tension of the materials, increases the contact area of the flavonoid compound, the carbon glycoside compound or the stilbene compound with water, and increases the dissolution speed.

As for Breviscapine, the “dissolved in (time)” value is, setting by setting: (Example 1: 5 g with Gastrodin 100 g, Sodium carbonate 10 g in 1000 ml, water heated to 95 °C, vacuum stirring 10 minutes, nitrogen gas) “about 5 minutes”; (Example 2: 25 g with Gastrodin 100 g, Hydroxypropyl-β-cyclodextrin 50 g, Sodium carbonate 1 g in 1000 ml, water heated to 95 °C, vacuum stirring 10 minutes, argon gas) “about 5 minutes”; (Example 8 (formula: Wogonin 10 g) with Thioether-β-cyclodextrin 50 g, Sodium bicarbonate 1 g in 1000 ml, water heated to 85 °C, vacuum stirring 30 minutes, argon gas) “about 5 minutes”.
With Taxinine, the “dissolved in (time)” value (Example 16: 12 g with Sulfobutyl ether-β-cyclodextrin 40 g in 1000 ml, water heated to 95 °C, vacuum stirring 10 minutes, nitrogen gas) is given as “about 5 minutes”.

The values above are taken from patent publication EP2832348B1, “METHOD FOR DISSOLVING FLAVONOID COMPOUND, CARBON GLYCOSIDE COMPOUND, OR STILBENE COMPOUND AND METHOD FOR PREPARING AN INJECTION OR A POWDER FOR INJECTION” (Kunming Pharmaceutical Corp., priority 2012, dated 2013).
